Source: the NIST ThermoML archive (doi:10.1021/je800925v)

Assay: xn = mol fraction of the nth substance listed
Conditions: Liquid

CCCCCCCC [octane] + CCO
Conditions	mass density [kg/m3]	viscosity [mPa·s]
273.15 K, x2 = 0.095	713.3	0.6185
273.15 K, x2 = 0.192	715.9	0.6401
273.15 K, x2 = 0.294	719.6	0.698
273.15 K, x2 = 0.399	725.5	0.7603
273.15 K, x2 = 0.496	732.2	0.8635
273.15 K, x2 = 0.602	740.1	0.9516
273.15 K, x2 = 0.691	752	1.103
273.15 K, x2 = 0.807	763.9	1.262
273.15 K, x2 = 0.911	781	1.459
275.65 K, x2 = 0.095	709.2	0.6003
275.65 K, x2 = 0.192	713.9	0.6206
275.65 K, x2 = 0.294	719.5	0.6743
275.65 K, x2 = 0.399	723.4	0.7329
275.65 K, x2 = 0.496	731.5	0.828
275.65 K, x2 = 0.602	738	0.9122
275.65 K, x2 = 0.691	749.9	1.054
275.65 K, x2 = 0.807	761.7	1.203
275.65 K, x2 = 0.911	778.9	1.389
278.15 K, x2 = 0.095	707.2	0.583
278.15 K, x2 = 0.192	711.8	0.6019
278.15 K, x2 = 0.294	717.2	0.652
278.15 K, x2 = 0.399	721.3	0.7069
278.15 K, x2 = 0.496	729.4	0.7951
278.15 K, x2 = 0.602	735.9	0.8751
278.15 K, x2 = 0.691	747.8	1.008
278.15 K, x2 = 0.807	759.7	1.148
278.15 K, x2 = 0.911	776.8	1.323
280.65 K, x2 = 0.095	705.1	0.5664
280.65 K, x2 = 0.192	708.5	0.5841
280.65 K, x2 = 0.294	714.8	0.6308
280.65 K, x2 = 0.399	719.2	0.6822
280.65 K, x2 = 0.496	725.2	0.7643
280.65 K, x2 = 0.602	733.8	0.8399
280.65 K, x2 = 0.691	745.7	0.9555
280.65 K, x2 = 0.807	757.6	1.097
280.65 K, x2 = 0.911	774.7	1.26
283.15 K, x2 = 0.095	703	0.5505
283.15 K, x2 = 0.192	706.4	0.5669
283.15 K, x2 = 0.294	712.5	0.6105
283.15 K, x2 = 0.399	717.1	0.6587
283.15 K, x2 = 0.496	723.1	0.7348
283.15 K, x2 = 0.602	731.7	0.8067
283.15 K, x2 = 0.691	743.6	0.9146
283.15 K, x2 = 0.807	755.4	1.047
283.15 K, x2 = 0.911	772.6	1.202
285.65 K, x2 = 0.095	701	0.5351
285.65 K, x2 = 0.192	704.3	0.5505
285.65 K, x2 = 0.294	710.2	0.5906
285.65 K, x2 = 0.399	715	0.6363
285.65 K, x2 = 0.496	723.1	0.707
285.65 K, x2 = 0.602	729.6	0.7758
285.65 K, x2 = 0.691	741.5	0.8763
285.65 K, x2 = 0.807	753.3	1.002
285.65 K, x2 = 0.911	770.5	1.147
288.15 K, x2 = 0.095	698.9	0.5207
288.15 K, x2 = 0.192	702.2	0.5347
288.15 K, x2 = 0.294	708.1	0.5721
288.15 K, x2 = 0.399	712.9	0.615
288.15 K, x2 = 0.496	721	0.6805
288.15 K, x2 = 0.602	727.5	0.7453
288.15 K, x2 = 0.691	739.4	0.8411
288.15 K, x2 = 0.807	751.2	0.958
288.15 K, x2 = 0.911	768.4	1.095
290.65 K, x2 = 0.095	696.8	0.5072
290.65 K, x2 = 0.192	700.1	0.5195
290.65 K, x2 = 0.294	705.9	0.5541
290.65 K, x2 = 0.399	710.8	0.5946
290.65 K, x2 = 0.496	718.9	0.6543
290.65 K, x2 = 0.602	725.3	0.7168
290.65 K, x2 = 0.691	737.2	0.8071
290.65 K, x2 = 0.807	749.1	0.9164
290.65 K, x2 = 0.911	766.3	1.046
293.15 K, x2 = 0	705.6	0.5374
293.15 K, x2 = 0.095	694.7	0.4931
293.15 K, x2 = 0.192	698	0.5049
293.15 K, x2 = 0.294	703.8	0.5366
293.15 K, x2 = 0.399	708.6	0.5752
293.15 K, x2 = 0.496	716.8	0.6298
293.15 K, x2 = 0.602	723.2	0.6899
293.15 K, x2 = 0.691	735.1	0.7742
293.15 K, x2 = 0.807	746.9	0.8781
293.15 K, x2 = 0.911	764.1	0.9997
295.65 K, x2 = 0.095	692.6	0.4796
295.65 K, x2 = 0.192	695.9	0.4908
295.65 K, x2 = 0.294	701.7	0.5197
295.65 K, x2 = 0.399	706.5	0.5566
295.65 K, x2 = 0.496	714.7	0.6039
295.65 K, x2 = 0.602	721.1	0.6643
295.65 K, x2 = 0.691	732.9	0.7428
295.65 K, x2 = 0.807	744.7	0.8415
295.65 K, x2 = 0.911	762	0.956
298.15 K, x2 = 0	701.6	0.5087
298.15 K, x2 = 0.095	690.5	0.4675
298.15 K, x2 = 0.192	693.8	0.477
298.15 K, x2 = 0.294	699.6	0.5022
298.15 K, x2 = 0.399	704.3	0.5386
298.15 K, x2 = 0.496	712.6	0.5828
298.15 K, x2 = 0.602	718.9	0.6396
298.15 K, x2 = 0.691	730.8	0.7137
298.15 K, x2 = 0.807	742.6	0.8061
298.15 K, x2 = 0.911	759.8	0.925
